Experimental findings from the supplement of paper PMC10307832 are described below.

Test in all cases: relative viability (nuclei count vs DMSO), 5 days (fraction); higher = more cells survive
Compound in assay [1]: CC1=C(N=C(N=C1N)[C@H](CC(=O)N)NC[C@@H](C(=O)N)N)C(=O)N[C@@H]([C@H](C2=CN=CN2)OC3C(C(C(C(O3)CO)O)O)OC4C(C(C(C(O4)CO)O)OC(=O)N)O)C(=O)N[C@H](C)[C@H]([C@H](C)C(=O)N[C@@H]([C@@H](C)O)C(=O)NCCC5=NC(=CS5)C6=NC(=CS6)C(=O)NCCC[S+](C)C)O [Bleomycin] + CCNC(=O)c1noc(-c2cc(C(C)C)c(O)cc2O)c1-c1ccc(CN2CCOCC2)cc1 [Luminespib] (partner 0.01 µM)
Conditions: main component drawn. The method in brief:
(§1)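 Medians of duplicate plates are given as relative viability. That measure is the nuclei count in treated wells divided by the count in vehicle wells. Counts were taken on 4× images of lung cancer cell lines in 1536-well plates, 5 days after pin-tool dosing the day after seeding with one drug alone or a fixed anchor-drug dose plus five library-drug doses (not always all listed) in √10 steps.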

Compound in assay [2]: COc1cc([C@@H]2c3cc4c(cc3[C@@H](O[C@@H]3O[C@@H]5CO[C@@H](C)O[C@H]5[C@H](O)[C@H]3O)[C@H]3COC(=O)[C@H]23)OCO4)cc(OC)c1O [Etoposide] + CC(=O)Nc1cccc(-n2c(=O)n(C3CC3)c(=O)c3c(Nc4ccc(I)cc4F)n(C)c(=O)c(C)c32)c1 [Trametinib] (partner 0.02 µM)
In short, it runs like this:
as §1

Compound in assay [3]: COc1cc([C@@H]2c3cc4c(cc3[C@@H](O[C@@H]3O[C@@H]5CO[C@@H](C)O[C@H]5[C@H](O)[C@H]3O)[C@H]3COC(=O)[C@H]23)OCO4)cc(OC)c1O [Etoposide] + C[C@]1(O)C[C@@H](c2nc(-c3ccc4ccc(-c5ccccc5)nc4c3)c3c(N)nccn32)C1 [Linsitinib] (partner 1 µM)
In short, it runs like this:
as §1

Compound in assay [4]: COc1cc([C@@H]2c3cc4c(cc3[C@@H](O[C@@H]3O[C@@H]5CO[C@@H](C)O[C@H]5[C@H](O)[C@H]3O)[C@H]3COC(=O)[C@H]23)OCO4)cc(OC)c1O [Etoposide] + Nc1ncn([C@H]2C[C@H](O)[C@@H](CO)O2)c(=O)n1 [Decitabine] (partner 2 µM)
In short, it runs like this:
as §1

In the case of NCI-H441, the relative viability in assay [1] (first compound 0.01 µM) is 0.31; in assay [1] (first compound 0.03162 µM), 0.331; in assay [1] (first compound 0.1 µM) it was 0.251; in assay [1] (first compound 0.3162 µM), 0.223; in assay [1] (first compound 1 µM), 0.216; in assay [2] (first compound 0.01 µM) it was 0.481. For the same cell line, the relative viability in assay [2] (first compound 0.03162 µM) was determined as 0.455; in assay [2] (first compound 0.1 µM) it was 0.394; in assay [2] (first compound 0.3162 µM), 0.26; in assay [2] (first compound 1 µM), 0.141; in assay [3] (first compound 0.01 µM), 0.51; in assay [3] (first compound 0.03162 µM), 0.474. Moreover, the relative viability in assay [3] (first compound 0.1 µM) was found to be 0.292; in assay [3] (first compound 0.3162 µM) it was 0.179; in assay [3] (first compound 1 µM) it was 0.148; in assay [4] (first compound 0.01 µM), 0.273; in assay [4] (first compound 0.03162 µM), 0.239; in assay [4] (first compound 0.1 µM), 0.241. Moreover, the relative viability came to 0.213 in assay [4] (first compound 0.3162 µM) and 0.169 in assay [4] (first compound 1 µM).

Turning to NCI-H460, the relative viability in assay [1] (first compound 0.01 µM) was 0.0436; in assay [1] (first compound 0.03162 µM), 0.0291; in assay [1] (first compound 0.1 µM), 0.0214; in assay [1] (first compound 0.3162 µM), 0.0162; in assay [1] (first compound 1 µM) it was 0.0138; in assay [2] (first compound 0.01 µM) it was 0.173. The relative viability came out at 0.14 in assay [2] (first compound 0.03162 µM); 0.0869 in assay [2] (first compound 0.1 µM); 0.0497 in assay [2] (first compound 0.3162 µM); 0.021 in assay [2] (first compound 1 µM); 0.684 in assay [3] (first compound 0.01 µM); 0.601 in assay [3] (first compound 0.03162 µM). For the same cell line, the relative viability in assay [3] (first compound 0.1 µM) amounted to 0.447; in assay [3] (first compound 0.3162 µM), 0.0349; in assay [3] (first compound 1 µM), 0.0212; in assay [4] (first compound 0.01 µM), 0.432; in assay [4] (first compound 0.03162 µM) it was 0.454; in assay [4] (first compound 0.1 µM), 0.319. Besides, the relative viability in assay [4] (first compound 0.3162 µM) came out at 0.105; in assay [4] (first compound 1 µM), 0.0405.

Regarding NCI-H520, the relative viability in assay [1] (first compound 0.01 µM) came out at 0.227; in assay [1] (first compound 0.03162 µM), 0.196; in assay [1] (first compound 0.1 µM) it was 0.218; in assay [1] (first compound 0.3162 µM), 0.24; in assay [1] (first compound 1 µM) it was 0.213; in assay [2] (first compound 0.01 µM), 0.597. For the same cell line, the relative viability came to 0.645 in assay [2] (first compound 0.03162 µM); 0.414 in assay [2] (first compound 0.1 µM); 0.617 in assay [2] (first compound 0.3162 µM); 0.49 in assay [2] (first compound 1 µM); 0.927 in assay [3] (first compound 0.01 µM); 1.04 in assay [3] (first compound 0.03162 µM). Also, the relative viability stood at 1.1 in assay [3] (first compound 0.1 µM); 0.895 in assay [3] (first compound 0.3162 µM); 0.9 in assay [3] (first compound 1 µM); 0.532 in assay [4] (first compound 0.01 µM); 0.493 in assay [4] (first compound 0.03162 µM); 0.519 in assay [4] (first compound 0.1 µM). The figures for the relative viability in assay [4] (first compound 0.3162 µM) and in assay [4] (first compound 1 µM) were 0.424 and 0.376, respectively.

Turning to NCI-H596, the relative viability in assay [1] (first compound 0.01 µM) was found to be 0.755; in assay [1] (first compound 0.03162 µM), 0.617; in assay [1] (first compound 0.1 µM) it was 0.552; in assay [1] (first compound 0.3162 µM), 0.335; in assay [1] (first compound 1 µM), 0.377; in assay [2] (first compound 0.01 µM), 0.7. Besides, the relative viability was 0.965 in assay [2] (first compound 0.03162 µM); 0.772 in assay [2] (first compound 0.1 µM); 0.727 in assay [2] (first compound 0.3162 µM); 0.646 in assay [2] (first compound 1 µM); 0.86 in assay [3] (first compound 0.01 µM); 1.13 in assay [3] (first compound 0.03162 µM). Besides, the relative viability in assay [3] (first compound 0.3162 µM) is 0.948; in assay [3] (first compound 1 µM) it was 0.884; in assay [4] (first compound 0.01 µM) it was 0.826; in assay [4] (first compound 0.03162 µM) it was 1.05; in assay [4] (first compound 0.1 µM) it was 1.09; in assay [4] (first compound 0.3162 µM) it was 1.01. The relative viability in assay [4] (first compound 1 µM) came out at 0.857.

For the cell line NCI-H647, the relative viability in assay [1] (first compound 0.01 µM) came out at 0.111; in assay [1] (first compound 0.03162 µM), 0.169; in assay [1] (first compound 0.1 µM), 0.104; in assay [1] (first compound 0.3162 µM) it was 0.0882; in assay [1] (first compound 1 µM), 0.0947; in assay [2] (first compound 0.01 µM), 0.309. Besides, the relative viability in assay [2] (first compound 0.03162 µM) stood at 0.546; in assay [2] (first compound 0.1 µM), 0.351; in assay [2] (first compound 0.3162 µM), 0.405; in assay [2] (first compound 1 µM), 0.134; in assay [3] (first compound 0.01 µM), 1.14; in assay [3] (first compound 0.03162 µM), 1.15. Besides, the relative viability in assay [3] (first compound 0.1 µM) turned out to be 1.13; in assay [3] (first compound 0.3162 µM), 0.416; in assay [3] (first compound 1 µM), 0.164; in assay [4] (first compound 0.01 µM), 0.363; in assay [4] (first compound 0.03162 µM), 0.369; in assay [4] (first compound 0.1 µM), 0.31. Besides, the relative viability in assay [4] (first compound 0.3162 µM) is 0.193; in assay [4] (first compound 1 µM) it was 0.175.

Turning to NCI-H650, the relative viability in assay [1] (first compound 0.01 µM) stood at 0.541; in assay [1] (first compound 0.03162 µM), 0.729; in assay [1] (first compound 0.1 µM), 0.694; in assay [1] (first compound 0.3162 µM), 0.2; in assay [1] (first compound 1 µM), 0.15; in assay [2] (first compound 0.01 µM), 0.884. Further, the relative viability in assay [2] (first compound 0.03162 µM) turned out to be 0.951; in assay [2] (first compound 0.1 µM), 0.681; in assay [2] (first compound 0.3162 µM) it was 0.527; in assay [2] (first compound 1 µM) it was 0.195; in assay [3] (first compound 0.01 µM) it was 0.856; in assay [3] (first compound 0.03162 µM), 0.809. Moreover, the relative viability in assay [3] (first compound 0.1 µM) was 0.452; in assay [3] (first compound 0.3162 µM), 0.445; in assay [3] (first compound 1 µM) it was 0.187; in assay [4] (first compound 0.01 µM) it was 0.318; in assay [4] (first compound 0.03162 µM) it was 0.339; in assay [4] (first compound 0.1 µM) it was 0.278. For the same cell line, the results for the relative viability in assay [4] (first compound 0.3162 µM) and in assay [4] (first compound 1 µM) were 0.205 and 0.174, respectively.

Turning to NCI-H661, the relative viability in assay [1] (first compound 0.01 µM) was found to be 0.78; in assay [1] (first compound 0.03162 µM), 0.807; in assay [1] (first compound 0.1 µM) it was 0.564; in assay [1] (first compound 0.3162 µM) it was 0.299; in assay [1] (first compound 1 µM), 0.284; in assay [2] (first compound 0.01 µM), 0.567. The relative viability stood at 0.639 in assay [2] (first compound 0.03162 µM); 0.398 in assay [2] (first compound 0.1 µM); 0.51 in assay [2] (first compound 0.3162 µM); 0.388 in assay [2] (first compound 1 µM); 0.591 in assay [3] (first compound 0.01 µM); 0.547 in assay [3] (first compound 0.03162 µM). In addition, the relative viability amounted to 0.388 in assay [3] (first compound 0.1 µM); 0.398 in assay [3] (first compound 0.3162 µM); 0.235 in assay [3] (first compound 1 µM); 0.558 in assay [4] (first compound 0.01 µM); 0.671 in assay [4] (first compound 0.03162 µM); 0.477 in assay [4] (first compound 0.1 µM). For the same cell line, the figures for the relative viability in assay [4] (first compound 0.3162 µM) and in assay [4] (first compound 1 µM) were 0.46 and 0.343, respectively.
